The record followed here is ChEMBL document CHEMBL2016539 (Bioorg Med Chem Lett, 2012).

Each structure is given as a SMILES string.

Assay [1] is described as follows: Immunosuppressive activity in C57BL/6 mouse T lymphocytes assessed as inhibition of cell proliferation after 72 hrs by MTT assay. It is filed as functional, cell-based. The note with it: C57BL/6, T-cell. On the technique in general: Tetrazolium assays rely on reduction of a dye to a coloured formazan, in cell work by metabolically active cells.
The target of assay [2] is Inosine-5'-monophosphate dehydrogenase 2 (Homo sapiens, UniProt P12268). In words: Inhibition of IMPDH2 using inosine 5'-monophosphate as substrate by spectrophotometry.

What is called IC50 is the concentration that gives 50% inhibition. Regarding `COc1c(C)c2c(c(O)c1C/C=C(\C)CCC(=O)O)C(=O)OC2` [MYCOPHENOLIC ACID], the IC50 in assay [1] came out at 0.32 µM.

As to `COc1c(C)c2c(c(O)c1C/C=C(\C)[C@H](CC(=O)O)O[C@H]1O[C@H](CO)[C@@H](O)[C@H](O)[C@H]1O)C(=O)OC2` [PENICACID B], the IC50 in assay [2] is 6.43 µM; in assay [1], over 20 µM.

For the compound `COc1c(C)c2c(c(O)c1C/C=C(\C)[C@@H](O)CC(=O)O)C(=O)OC2`, the IC50 in assay [2] is 1.79 µM; in assay [1], 1.1 µM.

With `COc1c(C)c2c(c(OC)c1C/C=C(\C)[C@@H](O)CC(=O)O)C(=O)OC2` [PENICACID A], the IC50 in assay [2] was found to be 28.9 µM; in assay [1], 2.46 µM.

For the compound `COc1c(C)c2c(c(O)c1CC(O)C(C)(O)C(O)CC(=O)O)C(=O)OC2` (centres undefined) [PENICACID C], the IC50 in assay [2] is 73.2 µM; in assay [1], over 30 µM.
